Results reported in US12070033B1, “Aquatic herbicide having non-herbicidal functional ingredients” (SePRO Corporation, priority 2019, dated 2024).

System: hydrilla
Experiment: Total phosphorus extracted from hydrilla and from the water in which it was located
Format: in vivo, Hydrilla verticillata
Conditions: 5 ppm dipotassium endothall
Method: Turning now to FIG. 7, treatment of aquatic weeds with the aquatic herbicidal formulation results in both an increased release of nutrients, such as phosphorus, from treated plants and a reduction from the water column of those nutrients released. In one experiment, total phosphorus was extracted from hydrilla and from water in which the hydrilla was located. In one test group, the hydrilla was untreated (control group). In a second test group, the hydrilla was treated with Formulation 1 (5 ppm dipotassium endothall) and, in a third test group, the hydrilla was treated with Aquathol® K (5 ppm dipotassium endothall). In the untreated control group, the plants remained healthy and pulled available phosphorus from the water column, resulting in a lower amount of phosphorus in the water (indicated by the darker shading at the bottom of each column) as compared to groups treated with Formulation 1 and Aquathol® K (as indicated by the lighter shading at the top of each column).

With O=C([O-])[C@@H]1[C@H](C(=O)[O-])[C@H]2CC[C@@H]1O2.[K+].[K+] [dipotassium endothall] the “plant's phosphorus released into the water” value was “approximately 27%”.
